Measurements: patent US20150030583A1, “Methods of Treating Serosal Cancer” (SLOAN KETTERING INSTITUTE FOR CANCER RESEARCH, priority 2011, published 2015)
Like-named read-outs stand apart in the source and are kept apart here.

Tests used:
Ovcar3-GTL catenae = experiment: Ovcar3-GTL catena drug sensitivity / proliferation screen (alamarBlue, 384-well); settings: for Increase in Resistance Day6/Day 1: ratio of IC50 day 6 to day 1, Ovcar3-GTL catenae; for Increased Resistance of catena: catena with established glycocalyx versus monolayers
catena cells [1] = experiment: Morphological observation of treated catenae under the microscope; format: cell-based; settings: for morphological change of treated catenae: microscope observation; for cells seen in cultures treated with high concentrations of compounds: 100 μM (rapamycin 25 μM, lovastatin acid 50 μM), cells re-entered the cell cycle without drug
[2] = tested on: established tumor spheroids; experiment: Established tumor spheroid drug sensitivity (alamarBlue)
[3] = tested on: Ovcar5 monolayer (mesenchymal) cells; experiment: Ovarian cancer monolayer drug sensitivity (alamarBlue), Ovcar5; format: cell-based
Experimental: (§1) The foregoing total of 29 compounds were tested in parallel on ovarian cancer monolayer cells by seeding 100 Ovcar3 monolayer (epithelial) or 25 Ovcar5 monolayer (mesenchymal) cells in 384-well plates. Drugs were added 4 days after cell seeding and cell viability was analyzed by alamarBlue staining. In general, catena cells with an established glycocalyx were on average 4-8 fold more resistant to these compounds when compared to monolayers. […]

[4] = tested on: Ovcar3 monolayer (epithelial) cells; experiment: Ovarian cancer monolayer drug sensitivity (alamarBlue), Ovcar3; format: cell-based
Experimental: as §1

catena cells [5] = experiment: Combination drug screening: paclitaxel after PEGylated enzyme treatment; format: cell-based
Experimental: Twenty-five […] seeded into 384-well plates. After 5 days, cells were treated with either PEGylated hyaluronidase, PEGylated collagenase or both for 10 minutes at 37° C. Without removing the enzymes, paclitaxel was added over a series of dilutions, followed by alamarBlue addition on day 9 with absorbance measured two days later.

catena cells [6] = experiment: Growth of catena cells upon disruption of the glycocalyx; format: cell-based
Experimental: To investigate the how catena cells grow upon disruption of the glycocalyx, catenae were dissociated to single cells with hyaluronidase treatment and plated in tissue culture treated flasks with or without 10% hyaluronidase enzyme solution (10 mg/ml) to prevent the formation of glycocalyx. In parallel, catenae were dissociated mechanically and plated in the absence of hyaluronidase.

[7] = Viscosity of catena culture supernatant after enzyme treatment; settings: a few drops 10 mg/mL enzyme
Experimental: In contrast, Ovcar3-GTL epithelial cells were 98% positive for CA125 by FACS and secreted 800 units/ml of CA125 into culture media. For the ELISA, cell supernatants were collected by spinning the cultures at 300×g for 5 min to remove cells and assayed by CA125 ELISA using an automated instrument, ADVIA Centaur XP Immunoassay System (Siemens Healthcare Diagnostics Inc.).
Hyaluronan is a glycosaminoglycan found in extracellular matrix and functions to provide microenvironmental cues in a number of biological processes, including tumor development [Toole, 2004]. Supernatants prepared as above were treated with a few drops 10 mg/mL hyaluronidase (Sigma) in deionized water.

[8] = tested on: low molecular weight complex of collagen and hyaluronan; experiment: Western blot (anti-COL1A2) of catena culture supernatant; format: biochemical
Source text: The glycocalyx of the catena has two major components, i.e., hyaluronan and collagen, which interact and form a stable complex. […] Briefly, the supernatant fraction of catena cell cultures was separated from the cells by centrifugation. The supernatant was run in an SDS-PAGE gel and blotted with the anti-COL1A2 antibody. This complex was sensitive to hyaluronidase treatment but was not affected by collagenase type 1, 2 or 4 treatment. This hyaluronan-collagen complex could be important for the formation of catena glycocalyx and drug resistance or metastatic potential conferred to catena cells by the glycocalyx.

[9] = tested on: glycocalyx surrounding a catena; experiment: Particle exclusion experiment with red blood cells; format: cell-based; settings: brief incubation with enzyme, RBCs overnight
Experimental: To visualize the glycocalyx surrounding a catena, a particle exclusion experiment was conducted using red blood cells (RBCs). Catenae were mechanically dissociated by pipetting or by brief incubation with hyaluronidase as before. RBCs from human peripheral blood were added and the mixture was incubated overnight in culture media. The cells were observed under the light microscope for the presence of a glycocalyx separating catena cells from the RBCs.

catena cells [10] = experiment: In vitro clonogenicity assay of catena cells; format: cell-based; settings: enzyme included in the clonogenic assay; attached cells
Source text: Catena cells were dissociated with hyaluronidase, allowed to attach to tissue culture plates and grown in the presence hyaluronidase for 7 days. Under these conditions, cells remained attached to tissue culture plates. The cells were harvested and subjected to an in vitro clonogenicity assay in the presence and absence of hyaluronidase. In parallel, mechanically-dissociated catena were subjected to the in vitro clonogenicity assay in the presence and absence of hyaluronidase.

[11] = 24 h, read-out: IC50 (μM) Addition on Day 1, Ovcar3-GTL catenae, compound added one day after seeding (cells predominantly lacking a glycocalyx)
[12] = 144 h, read-out: IC50 (μM) Addition on Day 6, Ovcar3-GTL catenae, compound added six days after seeding (established or substantial glycocalyx)
[13] = read-out: IC50 (μM) Addition on Day 1, Ovcar3-GTL catenae, compound added one day after seeding (cells predominantly lacking a glycocalyx)
[14] = read-out: IC50 (μM) Addition on Day 6, Ovcar3-GTL catenae, compound added six days after seeding (established or substantial glycocalyx)
[15] = 24 h, read-out: IC50 (μM) Addition on Day 1
[16] = 144 h, read-out: IC50 (μM) Addition on Day 6
[17] = 25 cells seeded, drugs added 4 days after seeding, read-out: IC50 (μM) Ovcar5 monolayer
[18] = 100 cells seeded, drugs added 4 days after seeding, read-out: IC50 (μM) Ovcar3 monolayer

Compound | IC50 (Ovcar3-GTL catenae; [11]) [nM] | IC50 (Ovcar3-GTL catenae; [12]) [nM] | Increase in Resistance Day6/Day 1 (Ovcar3-GTL catenae) | IC50 (Ovcar3-GTL catenae; [13]) [nM] | IC50 (Ovcar3-GTL catenae; [14]) [nM] | cells seen in cultures treated with high concentrations of compounds (catena cells [1]) | other results
O=c1[nH]cc(F)c(=O)[nH]1 [5-FU, 5-fluorouracil] | 3000 | > 100000 | 33 fold |  |  |  | morphological change of treated catenae (catena cells [1]): formation of fused chains
Nc1ccn([C@@H]2O[C@H](CO)[C@@H](O)[C@@H]2O)c(=O)n1 [Ara-C] |  |  | 2,000 fold | 50 | > 100000 | live, large single cells, i.e., cells arrested at mitosis | 
O=C(CCCCCCC(=O)Nc1ccccc1)NO [SAHA, Vorinostat] |  |  |  |  |  |  | morphological change of treated catenae (catena cells [1]): formation of tight spheroids
C/C1=C/C[C@@H](/C(C)=C/c2csc(C)n2)OC(=O)C[C@H](O)C(C)(C)C(=O)[C@H](C)[C@@H](O)[C@@H](C)CCC1 [dEpoB] |  |  | 250,000 fold | 0.4 | > 100000 |  | 
Cc1nc(Nc2ncc(C(=O)Nc3c(C)cccc3Cl)s2)cc(N2CCN(CCO)CC2)n1 [dasatinib] | > 100000 | > 100000 |  |  |  |  | 
COc1cccc2c1C(=O)c1c(O)c3c(c(O)c1C2=O)C[C@@](O)(C(C)=O)C[C@@H]3O[C@H]1C[C@H](N)[C@H](O)[C@H](C)O1 [daunarubacin] |  |  | 133 fold | 6 | 800 |  | 
COc1cc2c(cc1OC)[C@@H]1C(=O)c3ccc4c(c3O[C@@H]1CO2)C=CC(C)(C)O4 [deguelin] |  |  |  |  |  |  | IC50 (Ovcar3-GTL catenae; [15]): 25 nM; IC50 (Ovcar3-GTL catenae; [16]): 25 nM; IC50 ([2]; read-out: spheroid IC50): 400 nM; additional resistance conferred by spheroid formation ([2]; spheroid versus catena IC50): 15 fold
c1ccc2c(c1)[I+]c1ccccc1-2 [diphenyleneiodonium chloride] |  |  |  |  |  |  | toxicity to catena cells with a glycocalyx coat (Ovcar3-GTL catenae): exert toxicity
COc1cccc2c1C(=O)c1c(O)c3c(c(O)c1C2=O)C[C@@](O)(C(=O)CO)C[C@@H]3O[C@H]1C[C@H](N)[C@H](O)[C@H](C)O1 [doxorubicin] | 25 | 800 | 32 fold |  |  |  | 
COc1cc([C@@H]2c3cc4c(cc3[C@@H](O[C@@H]3O[C@@H]5CO[C@@H](C)O[C@H]5[C@H](O)[C@H]3O)[C@H]3COC(=O)[C@H]23)OCO4)cc(OC)c1O [etoposide] | 400 | 50000 | 125 fold |  |  |  | 
C/C(=C\c1csc(C)n1)[C@@H]1C/C=C(/C(F)(F)F)C/C=C/[C@H](C)[C@H](O)[C@@H](C)C(=O)C(C)(C)[C@@H](O)CC(=O)O1 [fludelone] |  |  |  | ≤ 0.012 | > 100000 | live, large single cells, i.e., cells arrested at mitosis | Increased Resistance of catena (Ovcar3-GTL catenae): 125,000 fold; IC50 [3, 17]: 0.0004 µM; IC50 [4, 18]: 0.0008 µM
CC[C@H](C)C(=O)O[C@H]1C[C@@H](C)C=C2C=C[C@H](C)[C@H](CC[C@@H](O)C[C@@H](O)CC(=O)O)[C@H]21 [lovastatin acid] | 25000 | 50000 | 2 fold |  |  | live, large single cells, i.e., cells arrested at mitosis | 
CO[C@@]12[C@H](COC(N)=O)C3=C(C(=O)C(C)=C(N)C3=O)N1C[C@@H]1N[C@@H]12 [mitomycin-C] |  |  | 60 fold | 50 | 3000 |  | 
CC(=O)O[C@H]1C(=O)[C@@]2(C)[C@H]([C@H](OC(=O)c3ccccc3)[C@]3(O)C[C@H](OC(=O)[C@H](O)[C@@H](NC(=O)c4ccccc4)c4ccccc4)C(C)=C1C3(C)C)[C@]1(OC(C)=O)CO[C@@H]1C[C@@H]2O [paclitaxel] | ≤ 0.012 | > 100000 |  |  |  | live, large single cells, i.e., cells arrested at mitosis | IC50 (Ovcar3-GTL catenae; Homo sapiens, OVCAR-3, read-out: IC50 (μM) Ovcar3 catena, catena cells with an established glycocalyx (Table D)): > 100000 nM; Increased Resistance of catena (Ovcar3-GTL catenae): 4,000 fold; decrease of paclitaxel IC50 after PEGylated hyaluronidase (catena cells [5]; enzyme 10 min at 37° C. on day 5 before paclitaxel): 2.5 fold; decrease of paclitaxel IC50 after combination of PEGylated hyaluronidase and PEGylated collagenase (catena cells [5]; enzymes 10 min at 37° C. on day 5 before paclitaxel): 16 fold; IC50 ([3]; Homo sapiens, OVCAR-5, 96 h, 25 cells seeded, drugs added 4 days after seeding, read-out: IC50 (μM) Ovcar5 monolayer): 0.025 µM; IC50 ([3]; Homo sapiens, OVCAR-5, subnanomolar to no more than 50 nM, read-out: IC50 Ovcar5 monolayer cells): ≤ 0.05 µM; IC50 ([4]; Homo sapiens, OVCAR-3, 96 h, 100 cells seeded, drugs added 4 days after seeding, read-out: IC50 (μM) Ovcar3 monolayer): 0.025 µM; IC50 ([4]; Homo sapiens, OVCAR-3, subnanomolar to no more than 50 nM, read-out: IC50 Ovcar3 monolayer cells): ≤ 0.05 µM
CO[C@H]1C[C@@H]2CC[C@@H](C)[C@@](O)(O2)C(=O)C(=O)N2CCCC[C@H]2C(=O)O[C@H]([C@H](C)C[C@@H]2CC[C@@H](O)[C@H](OC)C2)CC(=O)[C@H](C)/C=C(\C)[C@@H](O)[C@@H](OC)C(=O)[C@H](C)C[C@H](C)/C=C/C=C/C=C/1C [rapamycin] | 12000 | 25000 | 2 fold |  |  |  | 
CC[C@@]1(O)C(=O)OCc2c1cc1n(c2=O)Cc2cc3c(CN(C)C)c(O)ccc3nc2-1 [topotecan] | 20 | > 100000 | 5,000 fold |  |  | live, large single cells, i.e., cells arrested at mitosis | 
COc1ccc(CCN(C)CCCC(C#N)(c2ccc(OC)c(OC)c2)C(C)C)cc1OC (stereo not drawn) [verapamil] |  |  |  |  |  |  | IC50 (Ovcar3-GTL catenae; [15]): > 100000 nM; IC50 (Ovcar3-GTL catenae; [16]): > 100000 nM
hyaluronidase |  |  |  |  |  |  | growth of catena cells, continuous enzyme treatment (catena cells [6]; 10% enzyme solution (10 mg/ml) in culture): attached to tissue culture plates and formed epithelial and mesenchymal monolayers; growth of catena cells, brief enzyme treatment, plated without enzyme (catena cells [6]; dissociated to single cells with enzyme): no longer formed free floating chains but rather proliferated as irregular aggregates in suspension; viscosity of culture supernatant [7]: rapidly reduced the viscosity; effect on hyaluronan-collagen complex (less than 20 kDa) [8]: sensitive; glycocalyx coat in RBC particle exclusion [9]: completely lacked a glycocalyx; morphological change of treated catenae (catena cells [1]; listed as non-PEGylated hyaluronidase): caused aggregation of catena cells; colony size in clonogenic assay (catena cells [10]): further reduced
iso-oxazole-fludelone |  |  | 33,333 fold | 3 | > 100000 | live, large single cells, i.e., cells arrested at mitosis | Increased Resistance of catena (Ovcar3-GTL catenae): 2,000 fold; IC50 [3, 17]: 0.012 µM; IC50 [4, 18]: 0.05 µM
